Assay [1] can be described thus: Modulation of calcium release-activated calcium channel in mitomycin C-stimulated human PBMC assessed as [3H]thymidine incorporation after 4 days by topcount scintillation counting analysis.
Assay [2] in a line: Modulation of calcium release-activated calcium channel in human whole blood T cells assessed as inhibition of thapsigargin-stimulated IL2 production incubated 30 mins prior to thapsigargin-challenge measured after overnight incubation by AlphaLISA IL-2 assay. It is filed as cell-based. Conditions: T-cell. For orientation: Bead proximity is the source of the signal in Alpha formats.

A short description of assay [3]: Modulation of calcium release-activated calcium channel in human jurkat cells assessed as inhibition of PHA/PMA/ionomycin-stimulated IL2 production incubated 10 mins prior to PHA/PMA/ionomycin-challenge measured after 18 to 20 hrs. Type of assay: cell-based.

For orientation: IC50 means the midpoint of a concentration-inhibition curve. For `CCn1nc(-c2cccnc2)cc1-c1ccc2c(c1)OCC(c1c(F)cccc1F)N2` (stereo not drawn), the results for the IC50 in assay [1], in assay [2] and in assay [3] were 330 nM, 320 nM and 70 nM, respectively.
The like results for `Cc1sc(-c2cccnc2)nc1-c1ccc2c(c1)OCC(c1c(F)cccc1F)N2` (stereo not drawn) were, in that order, 190 nM, 430 nM and 30 nM.
The like results for `CCc1sc(-c2cccnc2)nc1-c1ccc2c(c1)OCC(c1c(F)cccc1F)N2` (stereo not drawn) were, in that order, 100 nM, 520 nM and 30 nM.
The like results for `CCc1sc(-c2cnccn2)nc1-c1ccc2c(c1)OCC(c1c(F)cccc1F)N2` (stereo not drawn) were, in that order, 180 nM, 870 nM and 20 nM.
Turning to `CCc1sc(-c2ccncc2)nc1-c1ccc2c(c1)OCC(c1c(F)cccc1F)N2` (stereo not drawn), the IC50 in assay [1] was 440 nM; in assay [2] it was 320 nM; in assay [3] it was 20 nM.
The like results for `CCc1sc(-c2cc(C)on2)nc1-c1ccc2c(c1)OCC(c1c(F)cccc1F)N2` (stereo not drawn) were, in that order, 430 nM, 360 nM and 30 nM.

The record behind these values is ChEMBL document CHEMBL3091425, “Benzoxazine Derivatives As CRAC Modulators” (ACS Med Chem Lett, 2013).
